The values below come from EP4656642A1, “ESTROGEN RECEPTOR PROTEOLYSIS TARGETING CHIMERA COMPOUND AND USE THEREOF” (GAN & LEE PHARM CO., LTD, priority 2023, dated 2024).

What all share (type): cell-based
The target in assay [1] is T1, ERα (Homo sapiens, UniProt P03372).
T1 sequence (P03372 1-595): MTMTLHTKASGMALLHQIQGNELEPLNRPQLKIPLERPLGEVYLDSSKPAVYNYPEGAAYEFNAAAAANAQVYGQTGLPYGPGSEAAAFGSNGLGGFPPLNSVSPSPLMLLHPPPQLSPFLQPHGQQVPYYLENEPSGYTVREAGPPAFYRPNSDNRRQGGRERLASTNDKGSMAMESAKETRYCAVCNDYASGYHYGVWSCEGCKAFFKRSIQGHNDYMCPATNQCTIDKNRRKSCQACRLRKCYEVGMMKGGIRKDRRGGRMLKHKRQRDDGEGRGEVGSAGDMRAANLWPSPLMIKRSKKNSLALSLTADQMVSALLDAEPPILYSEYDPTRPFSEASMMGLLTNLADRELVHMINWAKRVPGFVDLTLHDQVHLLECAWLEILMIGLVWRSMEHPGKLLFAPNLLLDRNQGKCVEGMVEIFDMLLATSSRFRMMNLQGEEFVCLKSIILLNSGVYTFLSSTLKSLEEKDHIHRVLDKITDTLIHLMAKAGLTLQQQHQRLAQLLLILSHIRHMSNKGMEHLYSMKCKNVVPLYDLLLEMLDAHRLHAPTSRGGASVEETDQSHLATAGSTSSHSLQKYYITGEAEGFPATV
As to the kind of experiment: Degradation of ERα in MCF-7 cells (immunoblotting, 4 h). In a few lines: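 MCF-7 cells treated 4 h at 37°C with compounds at 0.15-1000nM final. ERα in lysates measured by immunoblot, with band grayscale normalized to an internal reference protein. Degradation rate calculated against DMSO-treated control.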
In general terms: In western blotting, separated proteins are transferred to a membrane and probed.

The target in assay [2] is T1, ERα. Description: Degradation of ERα in T-47D cells (immunoblotting, 4 h). Further details: host or cells: T-47D. The gist of the method: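 T-47D cells were treated with compound (final 0.15-1000 nM, DMSO) for 4 h at 37°C, 5% CO2. Cells were lysed in RIPA buffer with protease inhibitor, and ERα protein in the cleared lysate was measured by immunoblotting.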
Assay [3] deals with MCF-7 cells. Description: Inhibition of cell proliferation of MCF-7 cells (CCK-8, 9 days). As to conditions: treated for 9 days, CCK-8 kit (Table 6). The gist of the method: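 MCF-7 cells seeded at 800 cells/well in DMEM with 10% FBS, exposed to a range of compound concentrations for 9 days at 37°C, 5% CO2. Viability read by CCK-8; IC50 derived for proliferation inhibition.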
(Formazan colour is commonly taken as a measure of viable cells.)

Where only a bound is given, the exact number is not on record here.

Broadly, the IC50 is the concentration that gives 50% inhibition.

As for `O=C1CCC(N2Cc3c(ccc4c3OCC43CCN(C(=O)C4CCN(CC5(F)CCN(c6ccc([C@@H]7c8ccc(O)cc8CC[C@@H]7c7ccccc7)cc6)CC5)CC4)CC3)C2=O)C(=O)N1` (some centres unmarked) [E1], the “Degradation rate (%) of ERα in MCF-7 cells” value in assay [1] (1nM compound) came out at 39%; in assay [1] (10nM compound), 75%. Further, the “Degradation rate (%) of ERα in T-47D cells” value stood at 57% in assay [2] (1nM compound) and 82% in assay [2] (10nM compound). This molecule also yielded an IC50 in assay [3] of 12.6 nM.
On the same counts, the results for `CN(C(=O)CN1CCC2(CC1)COc1c2ccc2c1CN(C1CCC(=O)NC1=O)C2=O)C1CCC2(CC1)CN(c1ccc([C@@H]3c4ccc(O)cc4CC[C@@H]3c3ccccc3)cc1)C2` (some centres unmarked) [H49] are 50%, 71%, 48%, 77% and 5.08 nM.
On the same counts, the results for `C[C@@H]1Cc2cc(O)ccc2C(c2c(F)cc(N3CCC4(CC3)CC(N3CCC(N5CCC6(CC5)COc5c6ccc6c5CN(C5CCC(=O)NC5=O)C6=O)[C@@H](F)C3)C4)cc2F)N1CC(F)F` (some centres unmarked) [I3] are 40%, 67%, 41%, 68% and 14.9 nM.
On the same counts, the results for `CCN(C(=O)CN1CCC2(CC1)COc1c2ccc2c1CN(C1CCC(=O)NC1=O)C2=O)C1CC2(CCN(c3ccc([C@@H]4c5ccc(O)cc5CC[C@@H]4c4ccccc4)cc3)CC2)C1` (some centres unmarked) [H55] are 28%, 62%, 56%, 83% and 199 nM.
`O=C1CCC(N2C(=O)c3cc4c(cc3C2=O)OC2(CCN(C(=O)CN3CCC5(CC3)CCN(c3ccc([C@@H]6c7ccc(O)cc7CC[C@@H]6c6ccccc6)cc3)CC5)CC2)C4)C(=O)N1` (some centres unmarked) [A64]: the “Degradation rate (%) of ERα in MCF-7 cells” value was 13% in assay [1] (1nM compound) and 47% in assay [1] (10nM compound). Moreover, the “Degradation rate (%) of ERα in T-47D cells” value in assay [2] (1nM compound) amounted to 12%; in assay [2] (10nM compound), 61%. In assay [3], it took 206 nM to reach half-maximal inhibition (IC50).
On the same counts, the results for `O=C1CCC(N2Cc3c(ccc4c3OCC43CCN(C[C@H]4CC[C@@H](OC5CCN(c6ccc([C@@H]7c8ccc(O)cc8CC[C@@H]7c7ccccc7)cc6)CC5)CC4)CC3)C2=O)C(=O)N1` (some centres unmarked) [G25] are 10%, 77%, 49%, 79% and 8.97 nM.
For the molecule `O=C1CCC(N2Cc3c(ccc4c3OC3(CC4)CCN(C(=O)CN4CCC5(CC4)CCN(c4ccc([C@@H]6c7ccc(O)cc7CC[C@@H]6c6ccccc6)cc4)CC5)CC3)C2=O)C(=O)N1` (some centres unmarked) [A65], the “Degradation rate (%) of ERα in MCF-7 cells” value in assay [1] (1nM compound) and in assay [1] (10nM compound) was 23% each time. Moreover, the “Degradation rate (%) of ERα in T-47D cells” value in assay [2] (1nM compound) came out at 14%; in assay [2] (10nM compound), 50%. The same molecule had an IC50 in assay [3] of 125 nM.
With `O=C1CCC(N2Cc3c(ccc4c3OCC43CCN(C(=O)[C@H]4CC[C@@H](N(CC5CC5)CC5CCN(c6ccc([C@@H]7c8ccc(O)cc8CC[C@@H]7c7ccccc7)cc6)CC5)CC4)CC3)C2=O)C(=O)N1` (some centres unmarked) [N11], the figures for the “Degradation rate (%) of ERα in MCF-7 cells” value in assay [1] (1nM compound) and in assay [1] (10nM compound) were 35% and 64%, respectively. The “Degradation rate (%) of ERα in T-47D cells” value in assay [2] (1nM compound) was 53%; in assay [2] (10nM compound) it was 57%. This molecule also gave an IC50 in assay [3] of 4.29 nM.
For `O=C1CCC(N2Cc3c(ccc4c3OC3(CC4)CCN(C4CN(C5CCN(c6ccc([C@@H]7c8ccc(O)cc8CC[C@@H]7c7ccccc7)cc6)CC5)C4)CC3)C2=O)C(=O)N1` (some centres unmarked) [K2], in that order: -10%, 3%, 8%, 16% and 1990 nM.
For `O=C1CCC(N2C(=O)c3ccc4c(c3C2=O)OCC42CCN(C3CCC4(CC3)CCN(c3ccc([C@@H]5c6ccc(O)cc6CC[C@@H]5c5ccccc5)cc3)CC4)CC2)C(=O)N1` (some centres unmarked) [L4], in that order: 9%, 48%, 9%, 44% and 970 nM.
For `CN(CC(=O)N1CCC2(CC1)COc1c2ccc2c1CN(C1CCC(=O)NC1=O)C2=O)C1CCC2(CC1)CN(c1ccc([C@@H]3c4ccc(O)cc4CC[C@@H]3c3ccccc3)cc1)C2` (some centres unmarked) [H52], in that order: 53%, 61%, 49%, 74% and 5320 nM.
Regarding `CN(C(=O)CN1CCC2(CC1)COc1c2ccc2c1CN(C1CCC(=O)NC1=O)C2=O)C1CC2(CCN(c3ccc([C@@H]4c5ccc(O)cc5CC[C@@H]4c4ccccc4)cc3)CC2)C1` (some centres unmarked) [H47], the “Degradation rate (%) of ERα in MCF-7 cells” value in assay [1] (1nM compound) is recorded as 39%; in assay [1] (10nM compound), 76%. For the same molecule, the “Degradation rate (%) of ERα in T-47D cells” value stood at 49% in assay [2] (1nM compound) and 82% in assay [2] (10nM compound). Moreover, half-maximal inhibition in assay [3] (IC50) required 363 nM.
On the same counts, the results for `CN(CC(=O)N1CCC2(CC1)COc1c2ccc2c1CN(C1CCC(=O)NC1=O)C2=O)C1CC2(CCN(c3ccc([C@@H]4c5ccc(O)cc5CC[C@@H]4c4ccccc4)cc3)CC2)C1` (some centres unmarked) [H48] are 38%, 71%, 53%, 78% and 1260 nM.
For `O=C1CCC(N2Cc3c(ccc4c3OCC43CCN(CC(=O)NC4CC5(CCN(c6ccc([C@@H]7c8ccc(O)cc8CC[C@@H]7c7ccccc7)cc6)CC5)C4)CC3)C2=O)C(=O)N1` (some centres unmarked) [H46], in that order: 53%, 77%, 50%, 81% and 140 nM.
On the same counts, the results for `O=C1CCC(N2Cc3cc4c(cc3C2=O)OC2(CC4)CN(C3CCC4(CC3)CCN(C3CCN(c5ccc([C@@H]6c7ccc(O)cc7CC[C@@H]6c6ccccc6)cc5)CC3)CC4)C2)C(=O)N1` (some centres unmarked) [K14] are -3%, 14%, 20%, 67% and 220 nM.
As for `C[C@@H]1Cc2cc(O)ccc2[C@@H](c2c(F)cc(N3CCC(C(=O)N4CCC(N5CCC6(CC5)COc5c6ccc6c5CN(C5CCC(=O)NC5=O)C6=O)CC4)CC3)cc2F)N1CC(F)F` (some centres unmarked) [I2], the “Degradation rate (%) of ERα in MCF-7 cells” value in assay [1] (1nM compound) turned out to be 63%; in assay [1] (10nM compound), 61%. Besides, the entries for the “Degradation rate (%) of ERα in T-47D cells” value in assay [2] (1nM compound) and in assay [2] (10nM compound) were 56% and 55%, respectively. The molecule further yielded an IC50 in assay [3] of 11.7 nM.
On the same counts, the results for `O=C1CCC(N2Cc3c(ccc4c3OCC43CCN(CC(=O)N4CC5(C4)CN(c4ccc([C@@H]6c7ccc(O)cc7CC[C@@H]6c6ccccc6)cc4)C5)CC3)C2=O)C(=O)N1` (some centres unmarked) [B21] are 38%, 55%, 66%, 83% and 312 nM.
On the same counts, the results for `O=C1CCC(N2Cc3c(ccc4c3OCC43CCN(C4CC5(CCN(C6CCN(c7ccc([C@@H]8c9ccc(O)cc9CC[C@@H]8c8ccccc8)cc7)CC6)CC5)C4)CC3)C2=O)C(=O)N1` (some centres unmarked) [K4] are 48%, 53%, 42%, 72% and less than 0.256 nM.
For `O=C1CCC(N2Cc3c(ccc4c3OCC43CCN(C(=O)C4CCN(C(=O)C5CCN(c6ccc([C@@H]7c8ccc(O)cc8CC[C@@H]7c7ccccc7)cc6)CC5)CC4)CC3)C2=O)C(=O)N1` (some centres unmarked) [K36], in that order: 20%, 61%, 54%, 76% and 15.2 nM.
